In patent publication US11103497B2, “Treatment of imatinib resistant leukemia” (Wyeth LLC, priority 2007, dated 2021):
Read-outs that look alike come from different tables or passages of the source.

Assays:
BcrAbl [1] = system: BcrAbl
Text: Bone marrow morphology is used to determine the blast and immature myeloid cell counts in order to define disease phases.
(§1) Standard cytogenetics are used to determine the presence of the Philadelphia chromosome and its percent presence in marrow. Twenty or more metaphases should be counted for this determination. FISH (Fluorescent in situ hybridization) analysis may be used to confirm presence of BcrAbl fusion product.
(§2) Cytogenetic response to treatment. As used herein, a “cytogenetic response to treatment” indicates a relative disappearance of the Philadelphia chromosome in treated subjects as determined by a percentage of Philadelphia chromosome positive cells present. The response can be minimal, minor, partial or complete. […] These figures for % positive are based on analysis of 20 metaphases (per subject?). A fluorescence in situ hybridization (FISH)-based assay can be used to qualify response if insufficient metaphases are available.
(§3) Hematologic Responses to treatment.
The baseline bcr/abl gene was sequenced and point mutations were recorded.

BcrAbl [2] = type: in vivo, human
Text: as §1, §2, §3

[3] = system: imatininb resistant CML cell lines; settings: cell lines having certain mutations associated with imatinib resistance; cited from earlier work
[4] = mutation Y253{H, F}, follow on data

## COc1cc(Nc2c(C#N)cnc3cc(OCCCN4CCN(C)CC4)c(OC)cc23)c(Cl)cc1Cl [SKI-606, 4-[(2,4-Dichloro-5-methoxy-phenyl)amino]-6-methoxy-7-[3-(4-methyl-1-piperazinyl)propoxy]-3-quinolinecarbonitrile]
BcrAbl [1]; mutation I432T
  heme responders per subjects assessed as per TABLE 1: 1 out of 1
BcrAbl [1]; mutation K263E
  heme responders per subjects assessed as per TABLE 1: 1 out of 1
BcrAbl [1]; mutation L273M
  cytogenetic responders per subjects assessed as per TABLE 1: 1 out of 1
  heme responders per subjects assessed as per TABLE 1: 1 out of 1
BcrAbl [1]; mutation M244V
  cytogenetic responders per subjects assessed as per TABLE 1: 1 out of 1
  heme responders per subjects assessed as per TABLE 1: 1 out of 1
BcrAbl [1]; mutation T315I
  cytogenetic responders per subjects assessed as per TABLE 1: 1 out of 1
  heme responders per subjects assessed as per TABLE 1: 1 out of 2
BcrAbl [1]; mutation Y253{H, F}
  cytogenetic responders per subjects assessed as per TABLE 1: 1 out of 2
  heme responders per subjects assessed as per TABLE 1: 2 out of 2
BcrAbl [1]; patients harboring at least one of nineteen unique point mutations of the bcr/abl gene, 400-600 mg per day
  cytogenetic or hematologic responses: resulted in cytogenetic or hematologic responses
BcrAbl [1]; some imatinib resistant patients not having one of the known resistance-associated mutations
  response to treatment: responded favorably
BcrAbl [2]; mutation E255K, follow on data
  cytogenetic responders per subjects assessed: 2 out of 2
  heme responders per subjects assessed: 2 out of 3
BcrAbl [2]; mutation E255V
  heme responders per subjects assessed: 1 out of 2
BcrAbl [2]; mutation E286G
  cytogenetic responders per subjects assessed: 1 out of 1
  heme responders per subjects assessed: 1 out of 1
BcrAbl [2]; mutation E355G
  cytogenetic responders per subjects assessed: 0 out of 1
  heme responders per subjects assessed: 1 out of 1
BcrAbl [2]; mutation E453K
  cytogenetic responders per subjects assessed: 1 out of 1
  heme responders per subjects assessed: 1 out of 1
BcrAbl [2]; mutation F317L, follow on data
  cytogenetic responders per subjects assessed: 1 out of 6
  heme responders per subjects assessed: 7 out of 8
BcrAbl [2]; mutation F359I
  cytogenetic responders per subjects assessed: 1 out of 1
  heme responders per subjects assessed: 1 out of 1
BcrAbl [2]; mutation F359V, follow on data
  cytogenetic responders per subjects assessed: 3 out of 4
  heme responders per subjects assessed: 5 out of 5
BcrAbl [2]; mutation F486S, follow on data
  cytogenetic responders per subjects assessed: 1 out of 2
  heme responders per subjects assessed: 1 out of 2
BcrAbl [2]; mutation G250E, follow on data
  cytogenetic responders per subjects assessed: 0 out of 1
  heme responders per subjects assessed: 2 out of 2
BcrAbl [2]; mutation G321R
  cytogenetic responders per subjects assessed: 0 out of 1
  heme responders per subjects assessed: 1 out of 1
BcrAbl [2]; mutation H396P, follow on data
  cytogenetic responders per subjects assessed: 1 out of 1
  heme responders per subjects assessed: 1 out of 1
BcrAbl [2]; mutation H396R
  cytogenetic responders per subjects assessed: 0 out of 2
  heme responders per subjects assessed: 1 out of 1
BcrAbl [2]; mutation I432T, follow on data
  cytogenetic responders per subjects assessed: 0 out of 1
  heme responders per subjects assessed: 1 out of 1
BcrAbl [2]; mutation K263E, follow on data
  cytogenetic responders per subjects assessed: 1 out of 1
  heme responders per subjects assessed: 1 out of 1
BcrAbl [2]; mutation L248V, follow on data
  cytogenetic responders per subjects assessed: 1 out of 3
  heme responders per subjects assessed: 2 out of 2
BcrAbl [2]; mutation L273M, follow on data
  cytogenetic responders per subjects assessed: 1 out of 1
  heme responders per subjects assessed: 1 out of 1
BcrAbl [2]; mutation L384P
  cytogenetic responders per subjects assessed: 0 out of 1
  heme responders per subjects assessed: 0 out of 1
BcrAbl [2]; mutation L387V
  cytogenetic responders per subjects assessed: 0 out of 1
  heme responders per subjects assessed: 1 out of 1
BcrAbl [2]; mutation M244V, follow on data
  cytogenetic responders per subjects assessed: 4 out of 4
  heme responders per subjects assessed: 4 out of 4
BcrAbl [2]; mutation M351T, follow on data
  cytogenetic responders per subjects assessed: 4 out of 6
  heme responders per subjects assessed: 5 out of 5
BcrAbl [2]; mutation N331S, follow on data
  cytogenetic responders per subjects assessed: 1 out of 1
BcrAbl [2]; mutation T277A
  cytogenetic responders per subjects assessed: 1 out of 1
  heme responders per subjects assessed: 1 out of 1
BcrAbl [2]; mutation T315I, follow on data
  cytogenetic responders per subjects assessed: 3 out of 3
  heme responders per subjects assessed: 5 out of 9
BcrAbl [2]; mutation V299L
  cytogenetic responders per subjects assessed: 0 out of 1
  heme responders per subjects assessed: 0 out of 1
BcrAbl [2]; mutation Y230H
  cytogenetic responders per subjects assessed: 0 out of 1
  heme responders per subjects assessed: 1 out of 1
BcrAbl [2]; [4]
  cytogenetic responders per subjects assessed: 3 out of 3
  heme responders per subjects assessed: 3 out of 3
[3]
  replication of imatinib resistant CML cell lines: effective at reducing replication
